pKd, pKi: −log10 of the molar value. Several values for one entry are separate records, joined by “and”; a condition that tells them apart may be missing. Equal entries are not always repeated. Where two headings read alike, the source gives them in different places.

Data set [1] addresses T1, CA VI (Homo sapiens, UniProt P23280).
T1 construct: made in house
The arrangement: method as in Murakami and Sly 35. Particulars: read-out: Ki for CA VI; ref Murakami and Sly 35; cited from earlier work.

Data set [2] has as its target T1, CA VI. Description: Fluorescent thermal shift assay (FTSA), CA VI. Format: binding.
Data set [3] addresses T2, CA VII (Homo sapiens, UniProt P43166).
T2 construct: made in house
In words: Fluorescent thermal shift assay (FTSA), CA VII. Format: binding.

The target of data set [4] is T3, CA I (Homo sapiens, UniProt P00915).
T3 construct: made in house
T3 sequence (P00915 whole entry): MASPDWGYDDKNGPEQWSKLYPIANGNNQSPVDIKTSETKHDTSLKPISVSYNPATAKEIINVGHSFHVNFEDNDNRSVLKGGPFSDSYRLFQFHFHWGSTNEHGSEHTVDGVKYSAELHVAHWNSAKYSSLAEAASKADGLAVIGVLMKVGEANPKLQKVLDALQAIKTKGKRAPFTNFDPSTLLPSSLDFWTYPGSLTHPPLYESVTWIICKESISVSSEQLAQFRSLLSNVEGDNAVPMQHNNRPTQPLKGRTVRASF
In words: Fluorescent thermal shift assay (FTSA), CA I. The class given is binding.

In data set [5] the target is T4, CA XIII (Homo sapiens, UniProt Q8N1Q1).
T4 construct: made in house
T4 sequence (Q8N1Q1 whole entry): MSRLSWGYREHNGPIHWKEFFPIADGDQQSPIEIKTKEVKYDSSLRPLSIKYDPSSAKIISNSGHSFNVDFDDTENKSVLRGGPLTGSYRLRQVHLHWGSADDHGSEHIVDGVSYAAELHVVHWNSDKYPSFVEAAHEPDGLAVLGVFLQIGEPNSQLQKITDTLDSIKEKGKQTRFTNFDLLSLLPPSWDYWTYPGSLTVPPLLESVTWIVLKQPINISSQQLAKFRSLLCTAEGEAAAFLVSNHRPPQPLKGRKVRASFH
In words: Fluorescent thermal shift assay (FTSA), CA XIII. The class given is binding.

For data set [6], the target named is T1, CA VI. Details: method as in PMID 24300919, PMID 17228881. Particulars: read-out: inhibition constant Ki for CA VI; previously reported; cited from earlier work.
The target of data set [7] is T5, CA XII (Homo sapiens, UniProt O43570).
T5 construct: made in house
T5 sequence (O43570 30-289 limits assumed): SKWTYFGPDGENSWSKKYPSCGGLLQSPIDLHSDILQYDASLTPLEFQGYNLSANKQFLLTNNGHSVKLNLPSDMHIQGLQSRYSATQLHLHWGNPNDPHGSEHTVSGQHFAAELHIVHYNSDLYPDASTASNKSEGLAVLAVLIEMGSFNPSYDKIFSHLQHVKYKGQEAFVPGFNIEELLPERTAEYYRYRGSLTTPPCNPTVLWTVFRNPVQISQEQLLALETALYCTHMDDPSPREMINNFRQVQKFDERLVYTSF
Description: Fluorescent thermal shift assay (FTSA), CA XII. Format: binding.

Data set [8] has as its target T3, CA I. Description: Isothermal titration calorimetry (ITC), CA I. The class given is binding. How it is done:
(§1) The synthesized compounds could be arranged into two groups. The first group of compounds is the N-aryl-β-alanine derivatives containing the primary sulfonamide group 3–25 (except in the compound 4 which is a tertiary sulfonamide) and the second group of compounds—diazobenzenesulfonamides 26–33. Compounds such as benzenesulfonamide (BSA) and acetazolamide (AZM) were used as controls. The binding affinity of these compounds to six CA isoforms I, II, VI, VII, XII, and XIII was determined by the fluorescent thermal shift assay (FTSA) and confirmed for two key compounds 18 and 31 by the isothermal titration calorimetry (ITC).
(§2) Isothermal titration calorimetry (ITC) experiments were performed using VP-ITC instrument (Microcal, Inc., Northampton, MA, USA) with 5–10 µM protein solution in the cell and 50–100 µM of the ligand solution in the syringe. A typical experiment consisted of 25 injections (10 µL each) within 3 min intervals. Experiments were performed at 37 °C in a 50 mM sodium phosphate buffer containing 100 mM NaCl at pH 7.0, with a final DMSO concentration of 2%, equal in the syringe and the cell.
In general terms: In ITC the heat of successive injections is recorded.

In data set [9] the target is T2, CA VII. In words: Isothermal titration calorimetry (ITC), CA VII. The class given is binding. How it is done: as §1, §2
In data set [10] the target is T6, CA II (Homo sapiens, UniProt P00918).
T6 construct: made in house
Description: Fluorescent thermal shift assay (FTSA), CA II. The class given is binding. Particulars: pH 7.0, 37 °C.

Data set [11] has as its target T6, CA II. In words: Isothermal titration calorimetry (ITC), CA II. Particulars: for K (ITC titration of CA II) / ΔH (ITC titration of CA II): 37 °C, 50 mM phosphate buffer (pH 7.0), 100 mM NaCl, 2% DMSO, Figure 2. The class given is binding. How it is done: as §1, §2
In data set [12] the target is T4, CA XIII. Description: Isothermal titration calorimetry (ITC), CA XIII. Format: binding. The procedure: as §1, §2
Data set [13] deals with T5, CA XII. In words: Isothermal titration calorimetry (ITC), CA XII. The class given is binding. Particulars: pH 7.0, 37 °C, read-out: Kd for CA XII by isothermal titration calorimetry (values in the brackets). How it is done:
as §1, §2

The mark [14] stands for this setting: FTSA, pH 7.0, 37 °C, read-out: Compound Dissociation Constants Kd for CA XIII.
Where [15] appears, read: FTSA, pH 7.0, 37 °C, read-out: Compound Dissociation Constants Kd for CA XII.
The mark [16] stands for this setting: FTSA, pH 7.0, 37 °C, read-out: Compound Dissociation Constants Kd for CA VI.
[17] abbreviates: FTSA, pH 7.0, 37 °C, read-out: Compound Dissociation Constants Kd for CA VII.
Setting [18] is: FTSA, pH 7.0, 37 °C, read-out: Compound Dissociation Constants Kd for CA I.
[19] abbreviates: read-out: Compound Dissociation Constants Kd for CA II.

T1 sequence (P23280 18-308): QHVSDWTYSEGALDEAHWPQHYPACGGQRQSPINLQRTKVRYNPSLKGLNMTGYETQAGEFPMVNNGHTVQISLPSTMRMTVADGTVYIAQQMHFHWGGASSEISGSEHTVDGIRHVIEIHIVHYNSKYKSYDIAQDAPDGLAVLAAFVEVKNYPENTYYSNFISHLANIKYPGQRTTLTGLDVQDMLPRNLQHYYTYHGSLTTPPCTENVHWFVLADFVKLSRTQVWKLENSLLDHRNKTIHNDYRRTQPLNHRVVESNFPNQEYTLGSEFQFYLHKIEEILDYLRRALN
T2 sequence (P43166 whole entry): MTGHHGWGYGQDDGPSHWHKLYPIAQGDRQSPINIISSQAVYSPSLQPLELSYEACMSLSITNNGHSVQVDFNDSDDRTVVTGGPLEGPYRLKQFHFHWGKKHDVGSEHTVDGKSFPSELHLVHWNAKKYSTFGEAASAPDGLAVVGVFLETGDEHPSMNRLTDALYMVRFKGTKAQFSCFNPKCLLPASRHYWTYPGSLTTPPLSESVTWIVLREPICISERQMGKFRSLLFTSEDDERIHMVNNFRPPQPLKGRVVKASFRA

A word on the pKi: it is the Ki on a negative log10 scale, so that one unit is a factor of ten. On to `Nc1ccc(S(N)(=O)=O)cc1` [Compound 1, 4-Aminobenzene-1-sulfonamide, reference compound], for which the pKi at CA VI [1] is 5.00; at CA VI [6] it was 6.05. Also, the results for the pKd at CA VI [2], on CA VII [3] and at CA XIII [5] (setting [14]) were 4.25, 4.30 and 4.00, respectively. Besides, the “difference between own Kd and Ki of Murakami and Sly, CA I” value at CA I [4] (Kd (FTSA) versus Ki of ref 35) came out at 2 times.

Consider `Cc1cc(C)n(C(=O)CCNc2ccc(S(N)(=O)=O)cc2)n1` [Compound 18, 4-{[3-(3,5-Dimethyl-1H-pyrazol-1-yl)-3-oxopropyl]amino}benzene-1-sulfonamide], for which the pKd on CA XII [7] (setting [15]) was 4.84; at CA I [8] (ITC, pH 7.0, 37 °C, read-out: Kd for CA I by isothermal titration calorimetry (values in the brackets)), 6.12; on CA VI [2] (setting [16]) it was 4.57; on CA VII [9] (ITC, pH 7.0, 37 °C, read-out: Kd for CA VII by isothermal titration calorimetry (values in the brackets)), 6.05; on CA VII [3] (setting [17]) it was 5.48; on CA I [4] (setting [18]), 5.78. For the same compound, the pKd was 6.17 and 6.18 on CA II [10] (setting [19]); 5.40 on CA XIII [5] (setting [14]); 6.34 on CA II [11] (ITC, pH 7.0, 37 °C, read-out: Kd for CA II by isothermal titration calorimetry (values in the brackets)); 6.00 at CA XIII [12] (ITC, pH 7.0, 37 °C, read-out: Kd for CA XIII by isothermal titration calorimetry (values in the brackets)). The “K (ITC titration of CA II)” value on CA II [11] was determined as 2.2E6. Also, the “ΔH (ITC titration of CA II)” value on CA II [11] is -9320.

Turning to `NS(=O)(=O)c1ccc(/N=N/N2CCCCCC2)cc1` [Compound 31], the pKd at CA XII [7] was 6.17; at CA I [8], 7.66; at CA VI [2], 4.84; at CA VII [9], 6.72; on CA VII [3] it was 6.90; at CA I [4], 8.22. Further, the pKd at CA XII [13] was 6.66; at CA II [10] (Compound Dissociation Constants Kd for CA II), 7.36; at CA XIII [5], 7.65; on CA II [11], 7.40; at CA XIII [12] it was 7.11. In addition, the “K (ITC titration of CA II)” value at CA II [11] is 2.5E7. Besides, the “ΔH (ITC titration of CA II)” value at CA II [11] is on record as -9640.

In general, melting point refers to the temperature of the solid-liquid transition. Take `NS(=O)(=O)c1ccc(NCCC(=O)NN=Cc2ccc(Cl)cc2)cc1` [Compound 15, 4-[(2-{N'-[(4-Chlorophenyl)methylidene]hydrazinecarbonyl}ethyl]amino)benzene-1-sulfonamide]: the melting point was 226 to 227 °C. The pKd at CA XII [7] (setting [15]) was 4.48. For the same compound, the pKd on CA VI [2] (setting [16]) is 5.17. The pKd on CA VII [3] (setting [17]) was 4.90. The pKd on CA I [4] (setting [18]) is 4.90. The pKd at CA II [10] (setting [19]) is 5.70. In addition, the pKd on CA XIII [5] (setting [14]) was 5.08.

The values are drawn from article PMC6271771, “4-Amino-substituted Benzenesulfonamides as Inhibitors of Human Carbonic Anhydrases” (Molecules, 2014).
